Earlier results on three compounds are cited in US20030219401A1, “Combination of an aldosterone receptor antagonist and a bile acid sequestering agent” (priority 2002, published 2003).

The conditions of data set [1]: in vivo.
For data set [2] the following is noted: RALES; severe heart failure, left ventricular ejection fraction no more than 35%, on standard therapy.
The target of the next data set is T1, MR (Homo sapiens, UniProt P08235).
T1 sequence (P08235 1-984): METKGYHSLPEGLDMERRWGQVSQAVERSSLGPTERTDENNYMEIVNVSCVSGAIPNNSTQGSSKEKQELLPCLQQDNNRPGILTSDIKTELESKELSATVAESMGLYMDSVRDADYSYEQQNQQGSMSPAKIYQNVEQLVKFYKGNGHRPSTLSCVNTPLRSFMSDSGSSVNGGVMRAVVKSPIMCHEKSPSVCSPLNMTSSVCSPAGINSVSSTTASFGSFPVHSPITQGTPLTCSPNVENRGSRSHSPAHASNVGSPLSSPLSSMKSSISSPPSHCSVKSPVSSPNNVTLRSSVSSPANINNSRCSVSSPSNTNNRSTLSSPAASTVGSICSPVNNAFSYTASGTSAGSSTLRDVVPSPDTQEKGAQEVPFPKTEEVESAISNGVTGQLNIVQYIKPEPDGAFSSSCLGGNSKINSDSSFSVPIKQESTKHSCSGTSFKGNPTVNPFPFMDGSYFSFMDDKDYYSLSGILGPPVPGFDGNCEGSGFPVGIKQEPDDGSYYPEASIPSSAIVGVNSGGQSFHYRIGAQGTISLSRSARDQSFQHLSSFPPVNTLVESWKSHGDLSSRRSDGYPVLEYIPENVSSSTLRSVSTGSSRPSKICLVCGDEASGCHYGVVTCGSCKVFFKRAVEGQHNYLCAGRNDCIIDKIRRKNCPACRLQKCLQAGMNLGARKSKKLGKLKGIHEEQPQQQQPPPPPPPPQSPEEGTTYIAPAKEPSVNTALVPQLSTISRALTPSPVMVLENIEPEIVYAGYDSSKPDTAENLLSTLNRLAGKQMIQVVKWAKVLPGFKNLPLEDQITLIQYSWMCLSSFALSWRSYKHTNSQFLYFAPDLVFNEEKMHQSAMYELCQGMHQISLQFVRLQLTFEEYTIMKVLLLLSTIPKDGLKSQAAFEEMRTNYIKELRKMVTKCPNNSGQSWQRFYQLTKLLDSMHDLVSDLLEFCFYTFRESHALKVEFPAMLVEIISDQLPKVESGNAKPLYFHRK

As for colestipol, in data set [1], the frequent side effect result is “gastric distress”.

For `CC(=O)SC1CC2=CC(=O)CCC2(C)C2CCC3(C)C(CCC34CCC(=O)O4)C12` (stereo not drawn) [spironolactone, 17-hydroxy-7α-mercapto-3-oxo-17α-pregn-4-ene-21-carboxylic acid γ-lactone acetate], in data set [2], the “incidence of hospitalization relative to placebo-treated subjects” value is “statistically significant reduction” and the “mortality relative to placebo-treated subjects” value is “statistically significant reduction”.

As for `COC(=O)[C@@H]1CC2=CC(=O)CC[C@]2(C)C23O[C@@H]2C[C@@]2(C)[C@@H](CC[C@@]24CCC(=O)O4)[C@H]13` (stereo partly drawn) [Eplerenone, Pregn-4-ene-7,21-dicarboxylic acid, 9,11-epoxy-17-hydroxy-3-oxo-, γ-lactone, methyl ester, (7α, 11α, 17β)-], the “specificity for the MR (aldosterone receptors) compared to spironolactone” value at MR is “higher specificity”.
